Test results from patent publication US4281121A, “1,3,4-Thiadiazole-2-carboxylic acid derivatives, process for making the same and fungicidal and nematocidal compositions containing same” (Schering Aktiengesellschaft, priority 1978, dated 1981).
Where two headings read alike, the source gives them in different places.

Key:
Pythium ultimum = assay: Threshold concentration test for use of the compounds against Pythium ultimum (infested soil, garden peas); type: in vivo; design: key to root evaluation (1-4): 4: white roots without fungous necrosis; 3: white roots, minor fungous necrosis; 2: brown roots, already more pronounced fungous necrosis; 1: heavy fungous necrosis, roots rotted; settings: for root evaluation (1-4): 3 weeks; for number of sound peas: 20 grains per dish, 3 weeks at 20-24° C.
Summary of the method: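 Pulverulent agents at 20% concentration mixed evenly into soil heavily infested with Pythium ultimum, then garden peas ('Wunder von Kelvedon', 20 per dish) sown at once. After three weeks at 20–24 °C in a hothouse, sound peas counted and roots scored on a 1–4 scale.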

Piricularia oryzae = type: in vivo; settings: 5 days
Tilletia caries [1] = assay: Seed treatment in open field tests regarding infestation by Tilletia caries (oats); type: in vivo
[2] = test system: Helminthosporium gramineum; assay: Seed treatment in open field tests for infestation by Helminthosporium gramineum (barley); type: in vivo
Method: Seed treatment in open field tests for infestation by Helminthosporium gramineum
The active agents were used in the form of pulverulent compositions. After about 8 months in case of winter barley and after about 3 months in case of summer barley the infested plants were counted and the activity was calculated by the formula [formula]

Ustilago avenae = assay: Oat seed treatment for Ustilago avenae; type: in vivo; settings: 10 weeks
Fusarium nivale = assay: Treatment of rye seeds against Fusarium nivale; type: in vivo; settings: 100 g/100 kg; about 4 weeks
Method: Treatment of rye seeds against Fusarium nivale
Rye seeds with a natural infestation by Fusarium nivale were seeded in earth filled pots and left for germination at about 6° C. Part of the seeds was treated before seeding with the active agents as appears from the subsequent table and part was untreated. After emergence of the seedlings the plants were illuminated with artificial light for 12 hours each day. After about 4 weeks the degree of infestation was determined in percentages. The fungicidal activity was calculated on the basis of the following formula: [formula]
The active agents were used in the form of 20% concentration compositions.

Septoria nodorum = assay: Treatment of oat seeds against Septoria nodorum; type: in vivo; settings: 4 weeks
Method: Effects of the treatment of oat seeds against Septoria nodorum
They were then seeded on a moist substrate for germination. As a control untreated seeds were likewise seeded. At about 6° C. the seed was incubated in an air-conditioned chamber until after 4 weeks the proportion of diseased seeds could be determined and the activity of the fungicidal compounds was calculated on the basis of the following formula: [formula]
The active agents were applied in the form of 20% concentration pulverulent compositions.

Fusarium avenaceum [3] = assay: Threshold concentration test in case of Fusarium avenaceum (infested soil, garden peas); type: in vivo; settings: for number of sound peas: 20 grains per dish, 18 days at 20-24° C.; for root evaluation (1-4): 18 days
Summary of the method: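 Soil heavily infested with Fusarium avenaceum was mixed uniformly with a 20% powder formulation of active agent, then sown immediately with 20 garden pea seeds ('Wunder von Kelvedon') per dish. After 18 days in a greenhouse at 20° to 24° C., sound plants were counted and roots scored on a 1–4 scale.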

Penicillium digitatum = assay: Inhibition of fungus in a nutrient solution: Penicillium digitatum; type: cell-based; settings: 6 days at 21-23° C.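 Also: 0 means no fungus growth and higher grades mean more surface covered.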
Botrytis cinerea [4] = assay: Inhibition of fungus in a nutrient solution: Botrytis cinerea; type: cell-based; settings: 6 days at 21-23° C.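 Also: 0 means no fungus growth and higher grades mean more surface covered.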
Alternaria solani = assay: Inhibition of fungus in a nutrient solution: Alternaria solani; type: cell-based; settings: 6 days at 21-23° C.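 Also: 0 means no fungus growth and higher grades mean more surface covered.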
Fusarium avenaceum [5] = assay: Inhibition of fungus in a nutrient solution: Fusarium avenaceum; type: cell-based; settings: 6 days at 21-23° C.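 Also: 0 means no fungus growth and higher grades mean more surface covered.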
Summary of the method: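 Grape juice/water (1:1) nutrient solution mixed with powdered test agent, then inoculated with conidia. Surface fungal growth scored on a 0–5 scale after 6 days at 21–23 °C.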

Venturia inaequalis = assay: Prophylactic leaf treatment of apples in open field test against Venturia inaequalis; type: in vivo; settings: 3 weeks
Ustilago nuda tritici = assay: Treatment of wheat seeds in open field tests against Ustilago nuda tritici; type: in vivo; settings: winter wheat; 100 g/100 kg seeds; eight months
Method: (§1) Treatment of wheat and barley seeds in open field tests against Ustilago nuda
(§2) Winter wheat seeds which had been infested with the smut cause Ustilago nuda tritici and winter barley seeds infested with Ustilago nuda nuda were treated with the agents listed in the table below and were seeded at seeding time in open fields. As a control untreated seeds were likewise included in the seed. After eight months the affected heads were counted for each test group and their proportion was calculated in order to find the fungicidal activity by the following formula: [formula]
(§3) The active compounds were employed in the form of 20% concentration powder compositions.

Ustilago nuda nuda = assay: Treatment of barley seeds in open field tests against Ustilago nuda nuda; type: in vivo; settings: winter barley; 100 g/100 kg seeds; eight months
Method: as §1, §2, §3

Tilletia caries [6] = assay: Treatment of oat seeds infested with Tilletia caries (spore germination); type: in vivo
[7] = test system: root gall nematodes (Meloidogyne sp.); assay: Threshold concentration test with root gall nematodes (cucumber, infested soil); type: in vivo; settings: 28 days at 24-27° C.
From the text: Threshold concentration test with root gall nematodes (Meloidogyne sp.)
20% concentration pulverulent active agents as listed in the table below were mixed in a uniform manner with a soil which had been heavily infested by root gall nematodes. After waiting for 3 days the treated soil was placed in two clay dishes of a capacity of 0.5 liter. 10 grain of cucumber seeds of the type "Guntruud" were placed into each dish.
Thereafter, the contents of the dishes were permitted to develop at a temperature of 24° to 27° C. for a time of 28 days in a hothouse. The cucumber roots were then washed out and were examined in a water bath regarding nematode infestation. The reduction of the infestation by the active agents as compared with untreated control material was determined in percentages.
The nematocidal activity was calculated by the formula
A=the infestation in the untreated control material and
B=the infestation after treatment.

Botrytis cinerea [8] = assay: Prophylactic leaf treatment of tomato plants against Botrytis cinerea; type: in vivo; settings: concentration of 0.025 of the active agent (unit not given)
[9] = concentration of active agent 0.1 (percentages)
[10] = winter oats, 100 g active agent/100 kg, about 9 months
[11] = summer barley, 25 g active agent/100 kg barley, about 3 months
[12] = summer barley, 50 g active agent/100 kg barley, about 3 months
[13] = summer barley, 100 g active agent/100 kg barley, about 3 months
[14] = winter barley, 25 g active agent/100 kg barley, about 8 months
[15] = winter barley, 50 g active agent/100 kg barley, about 8 months
[16] = winter barley, 75 g active agent/100 kg barley, about 8 months
[17] = winter barley, 100 g active agent/100 kg barley, about 8 months
[18] = 20 g active agent per 100 kg, about 5 weeks
[19] = 50 g active agent per 100 kg, about 5 weeks
[20] = concentration of active agent 0.005 (in gram)
[21] = concentration of active agent 0.025 (in gram)

Compound | root evaluation (1-4) (Pythium ultimum; 20 mg/l soil) | number of sound peas (Pythium ultimum; 20 mg/l soil) | root evaluation (1-4) (Pythium ultimum; 40 mg/l soil) | number of sound peas (Pythium ultimum; 40 mg/l soil) | root evaluation (1-4) (Pythium ultimum; 80 mg/l soil) | number of sound peas (Pythium ultimum; 80 mg/l soil) | % activity (Piricularia oryzae; [9]) | % activity (Tilletia caries [1]; [10]) | % activity [2, 11] | % activity [2, 12] | % activity [2, 13] | % activity [2, 14] | % activity [2, 15] | % activity [2, 16] | % activity [2, 17] | % activity (Ustilago avenae; 100 g active agent/100 kg) | % activity (Fusarium nivale) | % activity (Septoria nodorum; 50 g active agent/100 kg seeds) | % activity (Helminthosporium gram; [18]) | % activity (Helminthosporium gram; [19]) | also measured
CS(=O)(=O)c1nnc(C(N)=O)s1 [5-methylsulfonyl-1,3,4-thiadiazole-2-carboxamide] | 4 | 16 | 4 | 18 | 4 | 20 | 96% | 100% | 95% | 100% | 100% | 90% | 96% | 100% | 100% | 84% | 99% | 91% | 100% | 100% | % activity (Tilletia caries [1]; winter oats, 25 g active agent/100 kg, about 9 months): 100%; % activity (Tilletia caries [1]; winter oats, 50 g active agent/100 kg, about 9 months): 100%; % activity (Ustilago avenae; 150 g active agent/100 kg): 90%; % activity (Helminthosporium gram; 10 g active agent per 100 kg, about 5 weeks): 95%
CC(C)S(=O)(=O)c1nnc(C#N)s1 [5-isopropylsulfonyl-1,3,4-thiadiazole-2-carbonitrile] | 2 | 18 | 4 | 20 | 4 | 19 | 94% | 100% | 100% | 99.8% | 100% |  |  | 99% | 100% | 97% |  |  | 86% | 97% | number of sound peas (Fusarium avenaceum [3]; 25 mg/l soil): 20; root evaluation (1-4) (Fusarium avenaceum [3]; 25 mg/l soil): 4; number of sound peas (Fusarium avenaceum [3]; 50 mg/l soil): 20; root evaluation (1-4) (Fusarium avenaceum [3]; 50 mg/l soil): 4; number of sound peas (Fusarium avenaceum [3]; 100 mg/l soil): 19; root evaluation (1-4) (Fusarium avenaceum [3]; 100 mg/l soil): 4; fungus development on the surface of the nutrient solution (0-5) (Penicillium digitatum; 0.002%): 0; fungus development on the surface of the nutrient solution (0-5) (Penicillium digitatum; 0.004%): 0; fungus development on the surface of the nutrient solution (0-5) (Botrytis cinerea [4]; 0.002%): 1; fungus development on the surface of the nutrient solution (0-5) (Botrytis cinerea [4]; 0.004%): 0; fungus development on the surface of the nutrient solution (0-5) (Alternaria solani; 0.002%): 0; fungus development on the surface of the nutrient solution (0-5) (Alternaria solani; 0.004%): 0; fungus development on the surface of the nutrient solution (0-5) (Fusarium avenaceum [5]; 0.002%): 0; fungus development on the surface of the nutrient solution (0-5) (Fusarium avenaceum [5]; 0.004%): 0; % activity (Venturia inaequalis; [20]): 97%; % activity (Venturia inaequalis; [21]): 100%; % activity (Ustilago nuda tritici): 70%; % activity (Ustilago nuda nuda): 93%
Methoxyethyl-Hg--silicate [reference compound] |  |  |  |  |  |  |  |  |  |  |  |  |  |  |  |  |  |  |  |  | % activity (Tilletia caries [6]; 1.3 g active agent per 100 kg): 90%; % activity (Tilletia caries [6]; 2.6 g active agent per 100 kg): 100%; % activity (Tilletia caries [1]; summer oats, 2.6 g active agent/100 kg, about 4 months): 99%; % activity (Tilletia caries [1]; winter oats, 5.3 g active agent/100 kg, about 9 months): 99%; % activity ([2]; summer barley, 5.2 g active agent/100 kg barley): 99.8%; % activity ([2]; summer barley, 10.4 g active agent/100 kg barley): 100%; % activity ([2]; winter barley, 2.6 g active agent/100 kg barley): 99.4%; % activity ([2]; winter barley, 5.2 g active agent/100 kg barley): 100%; % activity (Ustilago avenae; 16 g active agent/100 kg): 66%; % activity (Septoria nodorum; 1.3 g active agent/100 kg seeds): 86%; % activity (Helminthosporium gram; 0.2 g active agent per 100 kg): 63%; % activity (Helminthosporium gram; 0.5 g active agent per 100 kg): 91%; % activity (Helminthosporium gram; 1.0 g active agent per 100 kg): 98%
CS(=O)(=O)c1nnc(C#N)s1 [5-methylsulfonyl-1,3,4-thiadiazole-2-carbonitrile] | 3 | 17 | 4 | 16 | 4 | 20 |  |  |  |  |  |  |  |  |  |  |  |  |  |  | number of sound peas (Fusarium avenaceum [3]; 25 mg/l soil): 18; root evaluation (1-4) (Fusarium avenaceum [3]; 25 mg/l soil): 4; number of sound peas (Fusarium avenaceum [3]; 50 mg/l soil): 17; root evaluation (1-4) (Fusarium avenaceum [3]; 50 mg/l soil): 4; number of sound peas (Fusarium avenaceum [3]; 100 mg/l soil): 19; root evaluation (1-4) (Fusarium avenaceum [3]; 100 mg/l soil): 4; fungus development on the surface of the nutrient solution (0-5) (Penicillium digitatum; 0.002%): 1; fungus development on the surface of the nutrient solution (0-5) (Penicillium digitatum; 0.004%): 0; fungus development on the surface of the nutrient solution (0-5) (Botrytis cinerea [4]; 0.002%): 1; fungus development on the surface of the nutrient solution (0-5) (Botrytis cinerea [4]; 0.004%): 0; fungus development on the surface of the nutrient solution (0-5) (Alternaria solani; 0.002%): 0; fungus development on the surface of the nutrient solution (0-5) (Alternaria solani; 0.004%): 0; fungus development on the surface of the nutrient solution (0-5) (Fusarium avenaceum [5]; 0.002%): 0; fungus development on the surface of the nutrient solution (0-5) (Fusarium avenaceum [5]; 0.004%): 0; Percentage reduction of infestation ([7]; 50 mg per liter soil): 71%; Percentage reduction of infestation ([7]; 100 mg per liter soil): 88%; Percentage reduction of infestation ([7]; 200 mg per liter soil): 96%
CNC(=O)c1nnc(S(C)(=O)=O)s1 [5-methylsulfonyl-1,3,4-thiadiazole-2-carboxylic acid methylamide] | 4 | 20 | 4 | 18 | 4 | 18 | 91% |  | 93% | 100% | 100% | 99.5% | 99.5% | 100% |  | 90% | 100% | 93% | 99% | 100% | % activity (Piricularia oryzae; concentration of active agent 0.02 (percentages)): 65%; % activity (Tilletia caries [1]; summer oats, 50 g active agent/100 kg, about 4 months): 100%; % activity (Botrytis cinerea [8]): 78%; % activity (Venturia inaequalis; [20]): 90%; % activity (Venturia inaequalis; [21]): 92%
